Experimental data: patent US20160046616A1, “NRF2 SMALL MOLECULE INHIBITORS FOR CANCER THERAPY” (THE JOHNS HOPKINS UNIVERSITY, priority 2013, published 2016)
Entries after “also recorded” stand apart in the source; their conditions may differ.

How the values were obtained:
[1] = test system: H838 NRF2-ARE-Fluc stable cell line; assay: H838 Nrf2 assay: NRF2-ARE firefly luciferase reporter gene assay; type: cell-based; details: Homo sapiens, NCI-H838, read-out: Potency of inhibition, H838
Source text: H838 is a NSCLC cell line with LOF Keap1 activity and constitutive translocation of NRF2 into the nucleus. A firefly luciferase reporter construct driven by a minimal promoter of NRF2-specific ARE is stably expressed in the H838 cells. This cell line was used as a confirmation assay to make sure hits identified from primary screening and that passed counterscreen assays worked in different cell types with a constitutively active NRF2 pathway (deficiency in Keap1).
This assay was very similar to the primary assay except that the cell line was changed. […] The final concentration of DMSO was maintained at 0.46%. Control compounds Budesonide and Staurosporine were both added at a concentration of 2 mM and Budesonide was also added as a 1:10 titration, starting at 200 μM, to achieve dose-response. After an 18-24 hour incubation at 37° C., 95% humidity, and 5% CO2, 1 μL of 5× CellTiter-Fluor non-lytic cell viability assay reagent (Promega, Madison Wis.) was added into the each well of the plates. The plates were then incubated for 30 minutes at room temperature before they were read on a ViewLux plate imager (Perkin Elmer, Waltham Mass.) using an excitation wavelength of 405 nm and an emission wavelength of 525 nm.
Representative compounds were assayed to assess the potency of inhibition in an A549 NRF2-ARE-Fluc stable cell line (A549 Nrf2 assay), in an H838 NRF2-ARE-Fluc stable cell line (H838 Nrf2 assay), and in an H1437 NRF2-ARE-Fluc stable cell line (H1437 Nrf2 assay) (see Table 3).

[2] = test system: A549 lung cancer cells; assay: Clonogenic assay in A549 lung cancer cells; type: cell-based; details: combination with chemotherapeutic drug
Description: For the clonogenic assay, exponentially growing cells were counted, diluted, and seeded in triplicate at 1,000 cells/well in a 6-well plate. Cells were incubated for 24 h in a humidified CO2 incubator at 37° C., and exposed to drugs or vehicle for 48 h. The chemotherapeutic drugs, etoposide, cisplatin, or carboplatin were added to some of the samples to see the effect of the drug in the presence and absence of the small inhibitors of Nrf2. After the treatment period, the drug containing media was replaced with complete growth media. To assess clonogenic survival following the drug treatment, A549 cells from a type of non-small cell lung cancer cell line were incubated in complete growth medium at 37° C. for 10-14 days and then stained with 50% methanol-crystal violet solution. Only colonies with more than 50 cells were counted (final concentration of DMSO in the growth media was 0.1%).
(§1) For the clonogenic assays, 1,000 cells/well were plated in a 6-well plate. The next day, the cells were treated with vehicle (DMSO), Nrf2 inhibitor, a chemotherapeutic drug, or a combination of Nrf2 and chemotherapeutic drugs for 48 hrs. The drug containing media was then replaced with regular growth media and the cells were incubated for an additional 10 days. At the end of incubation period, the colonies were stained with Crystal Violet and imaged.

[3] = test system: pancreatic cancer cells (Panc1); assay: Clonogenic assay in Panc1 pancreatic cancer cells; type: cell-based; details: for Growth of Panc1 cells, combination with gemcitabine: gemcitabine (10 nM in figure legends)
Description: (A-B) Panc1 and MiaPaCa cells were treated gemcitabine (10 nM) singly or in combination with compound 1 for 72 h. At the end of treatment, regular growth media was added and cells were further incubated for 8-10 days and stained with crystal violet;
as §1

[4] = In vivo pharmacokinetic plasma profile; details: CD-1 mice; for Time by which most of the compound is cleared from the blood / Compound retained in the blood until: IP 30 mg/kg, IV 3 mg/kg, plasma
Description: For the in vivo pharmacokinetic studies, single intraperitoneal (IP; 30 mg/kg) and intravenous (IV; 3 mg/kg) injection was carried out using CD-1 mice. (n=3 per group/time point). Compounds in the plasma were quantified using Mass Spectrometry.

[5] = test system: H460 xenograft tumors; assay: H460 lung cancer xenograft assay (flank); type: in vivo, athymic nude mice; details: for Growth of H460 xenograft tumors, combination with carboplatin / Growth of H460 xenograft tumors, single agent: nude mice
Description: For each group, pretreatment available lung volume was defined as 100% and compared with post-treatment lung volumes.
(§2) A549 cells were injected in the flanks of athymic nude mice and once tumor volume reached 50-100 mm^3, treatment was initiated. Vehicle, carboplatin (20 mg/kg; 2 days/week), compound#1 (20 mg/kg 4 days/week) or a combination of compound 1 and carboplatin was administered for four weeks. Values represent tumor volume ±s.e.m. for all groups. […] Tumors were excised and weight at the end of treatment period. […] H460 cells were injected in the flanks of athymic nude mice and once tumor volume reached 50-100 mm^3, treatment was initiated. Vehicle, carboplatin (10 mg/kg; 5 days/week), compound 1 (30 mg/kg 5 days/week) or a combination of compound 1 and carboplatin was administered for three weeks. Values represent tumor volume ±s.e.m.;
For the H460 lung cancer xenograft assay, two million cells in 100 μL of PBS were implanted in the flank of nude mice. One week post cell implantation, when the tumors were about 50 to 100 mm^3 in dimension, the mice were randomly divided into four groups: vehicle, chemotherapeutic drug, Nrf2 inhibitor and chemotherapeutic drug with an Nrf2 inhibitor. The mice were treated with the drugs for 2 to 4 weeks. Tumor volume was recorded biweekly.

[6] = test system: A549 xenograft tumors; assay: A549 lung cancer xenograft assay (flank); type: in vivo, athymic nude mice; details: for Growth of A549 xenograft tumors, combination with carboplatin / Growth of A549 xenograft tumors, single agent: nude mice, flank; for Growth of A549 xenograft tumors, single agent / Efficacy of compound alone relative to carboplatin, A549 tumors: single agent; for A549 tumor weight at end of treatment, combination with carboplatin / A549 tumor weight at end of treatment, single agent: compared to vehicle group
Description: A549 cells were injected in the flanks of athymic nude mice and once tumor volume reached 50-100 mm^3, treatment was initiated. Vehicle, carboplatin (5 mg/kg daily Monday to Friday), compound 4 (30 mg/kg daily Monday to Friday) or a combination of compound 4 and carboplatin was administered for three weeks. Values represent tumor volume ±s.e.m. for all groups (A). […] Tumors were excised and weight at the end of treatment period. […] For each group, pretreatment available lung volume was defined as 100% and compared with post-treatment lung volumes. Mice in the vehicle treated group died at 3 weeks;
as §2
A549 cells were injected in the flanks of athymic nude mice and once tumor volume reached 50-100 mm^3, treatment was initiated. Vehicle, carboplatin (10 mg/kg; 5 days/week), compound 3 (60 mg/kg 4 days/week) or a combination of compound 3 and carboplatin was administered for 15 days. Tumor growth was monitored till 28 days. Values represent tumor volume ±s.e.m. for all groups. […] Values represent tumor volume ±s.e.m.;
For the A549 lung cancer xenograft assay, five million cells in 100 μL of PBS were implanted in the flank of nude mice. Two to three weeks post cell implantation, when the tumors were about 50 to 100 mm^3 in dimension, the mice were randomly divided into four groups: vehicle, chemotherapeutic drug, Nrf2 inhibitor, and chemotherapeutic drug with an Nrf2 inhibitor. The mice were treated with the drugs for 2 to 4 weeks. Tumor volume was recorded biweekly.

Compound	IC50 [1] [µM]	Cytotoxicity of chemotherapeutic drugs in combination with the compound, clonogenic assay [2]	Growth of Panc1 cells, single agent [3]	Growth of Panc1 cells, combination with gemcitabine [3]	Retention time in the blood, comparison of compounds 3, 4 and 1 [4]	Time by which most of the compound is cleared from the blood [4]	Growth of H460 xenograft tumors, combination with carboplatin [5]	Growth of H460 xenograft tumors, single agent ([5]; single agent)	A549 tumor growth at Day 43, 4 weeks from the end of treatment, combination with carboplatin ([6]; compound 60 mg/kg 4 days/week + carboplatin 10 mg/kg 5 days/week for 15 days)	Growth of A549 xenograft tumors, combination with carboplatin [6]	Growth of A549 xenograft tumors, single agent [6]	Efficacy of compound alone relative to carboplatin, A549 tumors [6]	Compound retained in the blood until [4]	Growth of H460 xenograft tumors, combination with carboplatin ([5]; listed as ML385)	Efficacy of compound alone relative to carboplatin, H460 tumors ([5]; single agent)	A549 tumor weight at end of treatment, combination with carboplatin [6]	A549 tumor weight at end of treatment, single agent [6]
CC1(C)CC2CC(C)(CN2S(=O)(=O)c2ccc(C(=O)Nc3ccc(Cl)c(S(=O)(=O)N4CCOCC4)c3)cc2)C1 (stereo not drawn) [compound 3]	< 5	enhance the cytotoxicity of standard care chemotherapeutic drugs	suppressed the growth of two different pancreatic cell lines; also recorded: significant growth inhibitory effect as a single agent	enhance the cytotoxicity of gemcitabine	cleared the fastest	about 8 hrs	inhibited the growth	inhibited the growth	significant growth retardation as compared to group treated with single agent	inhibited the growth; also recorded: sensitized A549 lung tumors to carboplatin therapy	inhibited the growth; also recorded: significantly attenuated tumor growth till 28 days	comparable to carboplatin					
Cc1ccccc1C(=O)N1CCc2cc(-c3nc(NC(=O)Cc4ccc5c(c4)OCO5)sc3C)ccc21 [compound 4]	5 to 25	more effective in combination with a chemotherapeutic drug; also recorded: potentiates the toxicity of standard care chemotherapy drugs	suppressed the growth of two different pancreatic cell lines; also recorded: significant growth inhibitory activity as single agent	enhance the cytotoxicity of gemcitabine; also recorded: potentiates the cytotoxicity of standard care chemotherapy drugs (gemcitabine)		≤ 24 h	sensitized H460 lung tumors to carboplatin drug therapy	significant reduction in tumor volume and weight		tumor size and tumor weight was reduced; also recorded: sensitized A549 lung tumors to carboplatin therapy	tumor size and tumor weight was reduced; also recorded: shows anti-tumor activity as a single agent	comparable to carboplatin	about 12 hr	significant reduction in tumor volume and weight	comparable to carboplatin	significantly reduced tumor weight	significantly reduced tumor weight
O=C(Nc1ncc(Cc2ccc(C(F)(F)F)cc2)s1)c1ccc(-c2cccc([N+](=O)[O-])c2)o1 [Compound 1]	< 5	more effective in combination with a chemotherapeutic drug	suppressed the growth of two different pancreatic cell lines	enhance the cytotoxicity of gemcitabine; also recorded: potentiates the cytotoxicity of standard care chemotherapy drugs (gemcitabine)	retained in the blood for the longest time		shows anti-tumor efficacy in combination with carboplatin			showed inhibition of A549 xenograft tumors; also recorded: sensitized A549 lung tumors to carboplatin therapy	showed inhibition of A549 xenograft tumors; also recorded: shows anti-tumor activity as a single agent	comparable to carboplatin	about 24 hr			significantly reduced tumor weight	significantly reduced tumor weight
